Assay results: PubChem BioAssay AID1259407 (Chemical Carcinogenesis Research Information System (CCRIS), 2018)
Active and inactive are the calls of the source. The rule behind the calls is not given here.

Tested on: CCRIS mutagenicity, Ames/micronucleus/aberration tests
Assay: CCRIS mutagenicity studies
[1] = Test System: AMES SALMONELLA TYPHIMURIUM, Strain/Indicator: TA98, Metabolic Activation: NONE, Method: PREINCUBATION
[2] = Test System: AMES SALMONELLA TYPHIMURIUM, Strain/Indicator: TA98, Metabolic Activation: NONE, Method: STANDARD PLATE
[3] = Test System: AMES SALMONELLA TYPHIMURIUM, Strain/Indicator: TA100, Metabolic Activation: NONE, Method: PREINCUBATION
[4] = Test System: AMES SALMONELLA TYPHIMURIUM, Strain/Indicator: TA100, Metabolic Activation: NONE, Method: STANDARD PLATE

CC[C@]1(O)C[C@@H]2CN(CCc3c([nH]c4ccccc34)[C@@](C(=O)OC)(c3cc4c(cc3OC)N(C)[C@H]3[C@@](O)(C(=O)OC)[C@H](OC(C)=O)[C@]5(CC)C=CCN6CC[C@]43[C@@H]65)C2)C1
mutagenic call (End Point: IN VITRO CHROMOSOMAL ABERRATIONS, Test System: CHL/IU CELLS, Metabolic Activation: NONE): active; positive (ploidy changes)
mutagenic call (End Point: IN VITRO MICRONUCLEUS, Test System: CHL/IU CELLS, Metabolic Activation: NONE): active; positive
mutagenic call (End Point: IN VITRO MICRONUCLEUS, Test System: CHO CELLS, Metabolic Activation: RAT, LIVER, S-9, AROCLOR 1254): active; positive
mutagenic call (End Point: IN VITRO MICRONUCLEUS, Test System: HAMSTER V79 CELLS, Metabolic Activation: NONE): active; positive
mutagenic call (End Point: IN VITRO MICRONUCLEUS, Test System: HUMAN PERIPHERAL BLOOD LYMPHOCYTES (FEMALES, AGE LESS THAN 30 AND AGE GREATER THAN 50 YR), Metabolic Activation: NONE): micronuclei elevated in elderly donors
mutagenic call (End Point: IN VITRO MICRONUCLEUS, Test System: V79 CELLS, Metabolic Activation: NONE): active; positive
mutagenic call (End Point: IN VIVO CHROMOSOMAL ABERRATIONS, Test System: BONE MARROW CELLS, Species: MOUSE, Strain/Sex: SWISS/MALE, FEMALE, Route: IP): active; positive
mutagenic call (End Point: IN VIVO MICRONUCLEUS, Test System: POLYCHROMATIC ERYTHROCYTES, Species: MOUSE, Strain/Sex: ALBINO SWISS/MALE, Route: IP): active; positive
mutagenic call (End Point: IN VIVO MICRONUCLEUS, Test System: POLYCHROMATIC ERYTHROCYTES, Species: MOUSE, Strain/Sex: SWISS/MALE, FEMALE, Route: IP): active; positive
mutagenic call [1]: inactive; negative
mutagenic call [2]: inactive; negative
mutagenic call (Test System: AMES SALMONELLA TYPHIMURIUM, Strain/Indicator: TA98, Metabolic Activation: S-9, Method: PREINCUBATION): inactive; negative
mutagenic call (Test System: AMES SALMONELLA TYPHIMURIUM, Strain/Indicator: TA98, Metabolic Activation: S-9, Method: STANDARD PLATE): inactive; negative
mutagenic call [3]: inactive; negative
mutagenic call [4]: inactive; negative
mutagenic call (Test System: AMES SALMONELLA TYPHIMURIUM, Strain/Indicator: TA100, Metabolic Activation: S-9, Method: PREINCUBATION): inactive; negative
mutagenic call (Test System: AMES SALMONELLA TYPHIMURIUM, Strain/Indicator: TA100, Metabolic Activation: S-9, Method: STANDARD PLATE): inactive; negative
mutagenic call (Test System: AMES SALMONELLA TYPHIMURIUM, Strain/Indicator: TA1537, Metabolic Activation: S-9, Method: STANDARD PLATE): inactive; negative
mutagenic call (Test System: E. COLI, Strain/Indicator: WP2 (HCR), Metabolic Activation: NONE, Method: STANDARD PLATE): inactive; negative
mutagenic call (Test System: E. COLI, Strain/Indicator: WP2 (HCR), Metabolic Activation: S-9, Method: STANDARD PLATE): inactive; negative
mutagenic call (Test System: MOUSE LYMPHOMA, Strain/Indicator: L5178Y(TK+/TK-), Metabolic Activation: NONE, Method: MICROWELL): active; positive

N#CCCC(=O)CCc1ccc(C(=O)O)cc1
mutagenic call [1]: active; positive
mutagenic call (Test System: AMES SALMONELLA TYPHIMURIUM, Strain/Indicator: TA98, Metabolic Activation: RAT, LIVER, S-9, PCB, Method: PREINCUBATION): inactive; negative
mutagenic call [3]: inactive; negative
mutagenic call (Test System: AMES SALMONELLA TYPHIMURIUM, Strain/Indicator: TA100, Metabolic Activation: RAT, LIVER, S-9, PCB, Method: PREINCUBATION): inactive; negative

COc1ccc(C(=O)n2ncc(Cl)c(Cl)c2=O)cc1
mutagenic call [2]: inactive; negative
mutagenic call (Test System: AMES SALMONELLA TYPHIMURIUM, Strain/Indicator: TA98, Metabolic Activation: RAT, LIVER, S-9, AROCLOR 1254, Method: STANDARD PLATE): inactive; negative
mutagenic call [4]: inactive; negative
mutagenic call (Test System: AMES SALMONELLA TYPHIMURIUM, Strain/Indicator: TA100, Metabolic Activation: RAT, LIVER, S-9, AROCLOR 1254, Method: STANDARD PLATE): inactive; negative
mutagenic call (Test System: AMES SALMONELLA TYPHIMURIUM, Strain/Indicator: TA1535, Metabolic Activation: NONE, Method: STANDARD PLATE): inactive; negative
mutagenic call (Test System: AMES SALMONELLA TYPHIMURIUM, Strain/Indicator: TA1535, Metabolic Activation: RAT, LIVER, S-9, AROCLOR 1254, Method: STANDARD PLATE): inactive; negative
mutagenic call (Test System: AMES SALMONELLA TYPHIMURIUM, Strain/Indicator: TA1537, Metabolic Activation: NONE, Method: STANDARD PLATE): inactive; negative
mutagenic call (Test System: AMES SALMONELLA TYPHIMURIUM, Strain/Indicator: TA1537, Metabolic Activation: RAT, LIVER, S-9, AROCLOR 1254, Method: STANDARD PLATE): inactive; negative

COc1cccc2c1[C@H](CO)N1[C@@H](C#N)[C@@H]3C[C@@H](C(=O)O)[C@H]([C@@H]1C2)N3C
mutagenic call (Test System: Mouse lymphoma, Strain/Indicator: L5178Y (tk+/tk-), Metabolic Activation: None, Method: Suspension/plate): active; positive
mutagenic call (Test System: Mouse lymphoma, Strain/Indicator: L5178Y (tk+/tk-), Metabolic Activation: Rat, Liver, S-9, Aroclor 1254, Method: Suspension/plate): active; positive

O=NN(CCO)CCO
mutagenic call (Test System: AMES SALMONELLA TYPHIMURIUM, Strain/Indicator: TA97, Metabolic Activation: HAMSTER, LIVER, S-9, AROCLOR 1254 (10%), Method: PREINCUBATION): active; positive
mutagenic call (Test System: AMES SALMONELLA TYPHIMURIUM, Strain/Indicator: TA97, Metabolic Activation: NONE, Method: PREINCUBATION): active; positive
mutagenic call (Test System: AMES SALMONELLA TYPHIMURIUM, Strain/Indicator: TA97, Metabolic Activation: RAT, LIVER, S-9, AROCLOR 1254 (10%), Method: PREINCUBATION): active; positive
mutagenic call (Test System: AMES SALMONELLA TYPHIMURIUM, Strain/Indicator: TA98, Metabolic Activation: HAMSTER, LIVER, S-9, AROCLOR 1254 (10%), Method: PREINCUBATION): active; positive
mutagenic call [1]: active; positive
mutagenic call (Test System: AMES SALMONELLA TYPHIMURIUM, Strain/Indicator: TA98, Metabolic Activation: RAT, LIVER, S-9, AROCLOR 1254 (10%), Method: PREINCUBATION): active; positive
mutagenic call (Test System: AMES SALMONELLA TYPHIMURIUM, Strain/Indicator: TA100, Metabolic Activation: HAMSTER, LIVER, S-9, AROCLOR 1254 (10%), Method: PREINCUBATION): active; positive
mutagenic call [4]: active; positive
mutagenic call (Test System: AMES SALMONELLA TYPHIMURIUM, Strain/Indicator: TA100, Metabolic Activation: RABBIT, LIVER, S-9, Method: STANDARD PLATE): inactive; negative
mutagenic call (Test System: AMES SALMONELLA TYPHIMURIUM, Strain/Indicator: TA100, Metabolic Activation: RABBIT, LUNG, S-9, Method: STANDARD PLATE): inactive; negative
mutagenic call (Test System: AMES SALMONELLA TYPHIMURIUM, Strain/Indicator: TA100, Metabolic Activation: RABBIT, NASAL, S-9, Method: STANDARD PLATE): active; positive
mutagenic call (Test System: AMES SALMONELLA TYPHIMURIUM, Strain/Indicator: TA100, Metabolic Activation: RAT, LIVER, S-9, AROCLOR 1254 (10%), Method: PREINCUBATION): active; positive
mutagenic call (Test System: AMES SALMONELLA TYPHIMURIUM, Strain/Indicator: TA100, Metabolic Activation: RAT, LIVER, S-9, Method: STANDARD PLATE): inactive; negative
mutagenic call (Test System: AMES SALMONELLA TYPHIMURIUM, Strain/Indicator: TA100, Metabolic Activation: RAT, LUNG, S-9, Method: STANDARD PLATE): active; positive
mutagenic call (Test System: AMES SALMONELLA TYPHIMURIUM, Strain/Indicator: TA100, Metabolic Activation: RAT, NASAL, S-9, Method: STANDARD PLATE): active; positive
mutagenic call (Test System: AMES SALMONELLA TYPHIMURIUM, Strain/Indicator: TA1535, Metabolic Activation: HAMSTER, LIVER, S-9, AROCLOR 1254 (10%), Method: PREINCUBATION): active; positive
mutagenic call (Test System: AMES SALMONELLA TYPHIMURIUM, Strain/Indicator: TA1535, Metabolic Activation: NONE, Method: PREINCUBATION): inactive; negative
mutagenic call (Test System: AMES SALMONELLA TYPHIMURIUM, Strain/Indicator: TA1535, Metabolic Activation: RAT, LIVER, S-9, AROCLOR 1254 (10%), Method: PREINCUBATION): active; positive

ClC1OC1CBr (stereo not given)
mutagenic call [3]: active; positive

C1CCC2(CC1)CO2
mutagenic call [4]: inactive; negative
